Assay results published in paper PMC5034043 (The Journal of Biological Chemistry, 2016).
Read-outs that look alike come from different tables or passages of the source.

Assays:
X. laevis tadpoles = assay: In vivo photolabeling in tadpoles (recovery after UV irradiation); parameters: species or system Xenopus laevis; settings: 12 μM for 30 min, then 10 min low intensity UV irradiation
Protocol: Tadpoles were then exposed to 10 min of low intensity UV irradiation or were maintained as a 10-min non-UV irradiation control.
Behavioral activity was initially determined in albino X. laevis tadpoles (stages 45–47) as described previously ([29], [33]). All animal care and experimental procedures involving X. laevis tadpoles were carried out according to a protocol approved by the IACUC of the University of Pennsylvania.

synaptosomal proteome = assay type: binding, mouse
Protocol: (§1) Synaptosomes were resuspended to 1 mg of protein/ml in HEPES buffer medium (in mM: 140 NaCl, 5 KCl, 5 NaHCO3, 1.2 NaH2PO4, 1 MgCl2, 10 glucose, and 10 HEPES (pH 7.4)). […] The samples were allowed to equilibrate for 5 min before being transferred to a parafilm-sealed 1-mm path length quartz cuvette. The sample was then irradiated for 20 min at a peak bandwidth of 350 nm (Rayonet RPR-3500 lamp) ∼6 cm from the light source. Non-irradiated samples were left in the dark at ambient temperature (22–25 °C) for 20 min. All remaining procedures were conducted with restricted light exposure.
(§2) To 750 μg of photolabeled or control synaptosome samples, 40 μl of 10% SDS and 2 μl of 5 mM DTT in water were added. Samples were then vortexed, heated for 10 min at 65 °C, and then briefly cooled. Final concentrations of 150 μM azide-biotin (Click Chemistry Tools), 2 mM tris(3-hydroxypropyltriazolylmethyl)amine (Sigma), 1 mM ascorbic acid (Sigma), and 1 mM CuSO4·5H2O (Sigma) were added to each sample and vortexed vigorously. The samples were left in the dark at ambient temperature (22–25 °C) for 1 h with mild agitation. Directly to each sample 4× volume chilled methanol, 1.5× chilled chloroform, and 3× chilled double distilled H2O were added. Samples were vortexed vigorously and centrifuged at 1,400 × g for 30 min at 4 °C. Both liquid layers were carefully removed, and the protein pellet was washed with 2 ml of 1:1 (v/v) chilled methanol/chloroform. Samples were centrifuged at 3,500 × g for 30 min at 4 °C. Protein pellets were briefly air-dried before further processing.
750 μg of biotin-conjugated protein sample was resuspended in 500 μl of 25 mM NH4HCO3 and 6 M urea in water. Next, 150 μl of 5% Triton X-100 in water, 50 μl of 10% SDS in water, and 1.5 μl of 0.5 M DTT were added. The samples were heated for 15 min at 65 °C. After briefly cooling, 14 μl of 0.5 M iodoacetamide in water was added, and the sample was left in the dark for 45 min. […] The supernatant was diluted to 4 ml with PBS, and 2 ml of PBS containing 100 μl of 50% streptavidin-agarose resin (Thermo Scientific) was added. Biotinylated proteins within the sample were captured over resin overnight at 4 °C with mild agitation. The resin was first washed with 6 ml of 1% SDS in PBS, and then 7 ml of 0.1 M urea in PBS followed by 10 ml of PBS. The resin underwent a final wash with 0.9 ml of 50 mM Tris-HCl and 1 mM CaCl2 in water (pH 8.0) and then resuspended in 200 μl of 50 mM Tris-HCl, 1 mM CaCl2 in water (pH 8.0), and 2 μg of porcine sequencing grade trypsin (Promega). Samples were digested overnight at 37 °C. Samples were then centrifuged at 2,000 × g for 4 min, and digest supernatant was decanted. Beads were washed in 100 μl of PBS centrifuged at 5,200 × g for 5 min, and the wash was combined with the digest supernatant. To the combined sample, trifluoroacetic acid (TFA) was added to 0.4% (v/v) or until pH <2. The sample was desalted with Oasis C18 10-mg columns (Waters) as described previously ([66]). The eluted sample was dried by speed vac and resuspended in 0.1 M HEPES buffer (pH 8.5). […] Appropriate corresponding TMTsixplex^TM-labeled samples were pooled and dried by speed vac. The combined samples were resuspended in 0.5% acetic acid in water and pH-corrected with acetic acid until pH was <2. 40 μg of protein was desalted with C18 stage tips prepared in-house and dried by speed vac.
Samples were resuspended in 10 mM KH2PO4 (pH 2.6), 30% acetonitrile (v/v) in water, and fractionated by off-line strong cation exchange chromatography prior to mass spectrometry (MS) analysis similar to as reported previously ([66]). The full synaptosome proteome control was prepared similarly without TMTsixplex^TM labeling.
All TMT samples were analyzed with three-stage mass spectrometry (MS3) TMTsixplex^TM quantification workflow as described previously ([34]).

[1] = buffer
[2] = system: alkylphenol-binding proteins within synaptosomes; assay: Fluorescent profiling: protection from AziPm-click (1) photolabeling of synaptosomes; parameters: species or system mouse; settings: propofol 75–375 μM; ketamine 150–450 μM; triplicate
Protocol: as §1

GABAA receptor subunits = assay: Western blotting of streptavidin-captured GABAA receptor subunits with ligand protection; assay type: binding, mouse; settings: AziPm-click (1) 10 μM, protecting ligand 100 μM, UV irradiation; n = 4
Protocol: as §1
as §2, with “Both liquid layers were carefully removed, and the protein pellet was washed with 2 ml of 1:1 (v/v) chilled methanol/chloroform. Samples were centrifuged at 3,500 × g for 30 min at 4 °C. Protein pellets were briefly air-dried before further processing.” left out

[3] = protein A2AI17 Glutamate receptor ionotropic, NMDA 1 (Grin1)
[4] = protein P70429-2 Isoform 1 of Ena/VASP-like protein (Evl)
[5] = protein P97300-3 Isoform 3 of Neuroplastin (Nptn)
[6] = protein Q8BJU0-2 Isoform 2 of Small glutamine-rich tetratricopeptide repeat-containing protein alpha (Sgta)
[7] = protein Q9DBF1-2 Isoform 2 of Alpha-aminoadipic semialdehyde dehydrogenase (Aldh7a1)
[8] = protein Q9EPJ9-2 Isoform 2 of ADP-ribosylation factor GTPase-activating protein 1 (Arfgap1)
[9] = protein Q8CFX3 Protein Pcdh1 (Pcdh1)

C#CCOCc1ccc(C2(C(F)(F)F)N=N2)cc1O [AziPm-click (1), 2-((prop-2-yn-1-yloxy)methyl)-5-(3-(trifluoromethyl)-3H-diazirin-3-yl)phenol]
immobility after drug washout (X. laevis tadpoles): prolonged immobility after drug washout | TMT Ratio Mean 'UV/ No UV' (synaptosomal proteome; O35633-2 Slc32a1): 20.27 | TMT Ratio Mean 'UV/ No UV' (synaptosomal proteome; P60879-2 Snap25): 23.67 | Log2( Mean 'UV/ No UV') (synaptosomal proteome; [3]): 3.36 | TMT Ratio Mean 'UV/ No UV' (synaptosomal proteome; [3]): 10.28 | TMT Ratio Mean 'UV/ No UV' (synaptosomal proteome; protein P23819-4 Isoform 4 of Glutamate receptor 2 (Gria2)): 12.58 | TMT Ratio Mean 'UV/ No UV' (synaptosomal proteome; [4]): 19.89 | TMT Ratio Mean 'UV/ No UV' (synaptosomal proteome; [5]): 12.71 | TMT Ratio Mean 'UV/ No UV' (synaptosomal proteome; [6]): 15.19 | TMT Ratio Mean 'UV/ No UV' (synaptosomal proteome; [7]): 14.82 | TMT Ratio Mean 'UV/ No UV' (synaptosomal proteome; [8]): 10.88 | half-life (t½) of time-dependent photoreactivity [1]: 25 min

CC(C)c1cccc(C(C)C)c1O [propofol, 2,6-diisopropylphenol, reference compound]
fluorescent labeling of synaptosomal proteins by AziPm-click (1) in presence of protecting ligand [2]: decreased | Log2( Mean 'UV/ UV+propofol') (synaptosomal proteome; O35633-2 Slc32a1): 1.24 | % propofol protection (synaptosomal proteome; Q8BKX1-4 Baiap2): 71% | Log2( Mean 'UV/ UV+propofol') (synaptosomal proteome; Q8BKX1-4 Baiap2): 1.77 | % propofol protection (synaptosomal proteome; Q8VDQ8-2 Sirt2): 71% | Log2( Mean 'UV/ UV+propofol') (synaptosomal proteome; Q8VDQ8-2 Sirt2): 1.61 | decrease in enrichment factor with propofol protection (synaptosomal proteome; five GABAA receptor subunits (α1,3 and β1–3), enrichment factor = mean (+)UV/(−)UV TMT ratio): at least 10 | % propofol protection (synaptosomal proteome; [3]): 57% | Log2( Mean 'UV/ UV+propofol') (synaptosomal proteome; [3]): 1.07 | % propofol protection (synaptosomal proteome; [4]): 56% | Log2( Mean 'UV/ UV+propofol') (synaptosomal proteome; [4]): 1.14 | Log2( Mean 'UV/ UV+propofol') (synaptosomal proteome; [5]): 1.17 | % propofol protection (synaptosomal proteome; [6]): 56% | Log2( Mean 'UV/ UV+propofol') (synaptosomal proteome; [6]): 1.02 | % propofol protection (synaptosomal proteome; [9]): 50% | Log2( Mean 'UV/ UV+propofol') (synaptosomal proteome; [9]): 0.87 | % propofol protection (synaptosomal proteome; [7]): 52% | Log2( Mean 'UV/ UV+propofol') (synaptosomal proteome; [7]): 0.94 | % propofol protection (synaptosomal proteome; [8]): 56% | Log2( Mean 'UV/ UV+propofol') (synaptosomal proteome; [8]): 1.06 | protection of GABAA receptor α and β subunits from AziPm-click (1) capture (GABAA receptor subunits): significant decreases in capture efficiency
